# In paper PMC12221113, “Deferasirox Derivatives as Inhibitors of Kallikrein‐Related Peptidases Associated to Neurodegenerative Diseases” (Chemmedchem, 2025):
# Where two headings read alike, the source gives them in different places.
# Assays:
# [1] = test system: KLK's of the CNS triad (KLK1‐KLK6‐KLK8); experiment: Reversibility analysis by dilution after preincubation; assay type: biochemical, human; settings: 100-fold dilution after 15 min preincubation
# Protocol: Aliquots of reaction mixtures (1 μL) were added to 99 μL of buffer containing the fluorogenic substrate (experimental conditions identical to the routine protocol used for a given enzyme). The mechanism of inhibition was determined by varying substrate and inhibitor concentrations, the type of inhibition and inhibition parameter (Ki or Ki′) are determined by Dixon's plots.
# [2] = CCK8 cell viability assay, HMC3; assay type: cell-based; settings: human, HMC3 microglial cells; HMC3, 24h, 25 and 50 μM, in absence or presence of iron (100 µM FAC); read-out: percentage of cell viability
# Protocol: (§1) Human neuroblastoma cell line (SH-SY5Y) was purchased at American Type Culture Collection
# (§2) Both cell lines were cultured in Dulbecco’s Modified Eagle Medium (DMEM)
# (§3) containing 10% heat inactivated fetal bovine serum (FBS), 1% Penicillin/Streptomycin, 10 mM
# (§4) Sodium Pyruvate, 2 mM L-Glutamine and 4,5 g/L D-glucose at 37°C, in a 5% humidified
# (§5) incubator. Cells were cultivated until 80% confluence in flasks then were plated in 96-well
# (§6) plates. For this experiment, SH-SY5Y were used at 10th passage and HMC3 at 13th. SH-SY5Y
# (§7) cells were seeded at a density of 3x10^4 cells/well and HMC3 at a density of 10^4 cells/well. After
# (§8) seeding, cells were left in complete medium overnight to adhere to the plates. After that, cells
# (§9) were treated using inhibitors solubilized in DMSO at stock concentrations of 2,5 mM or 5 mM
# (§10) with or without 10 mM iron. Iron solution was prepared by using FAC (Ferric Ammonium
# (§11) Citrate, Sigma®) at stock concentration of 25 mM. After 24h of treatment, cell viability was
# (§12) assessed with the CCK8 (Cell-Counting Kit 8) from TargetMol. After treatments, 10 µL of CCK8
# (§13) reagent was diluted in 90 µL of complete medium and added to each well. After 3 hours at
# (§14) 37°C, cell viability was assessed by absorbance measurement at 460 nm. Each viability assay
# (§15) is the mean of two independent experiments performed in triplicates.
# (§16) treated for 24h with the two selected concentrations of inhibitor (25 µM or 50 µM)
# (§17) preincubated or not with 100 µM of FAC. The data are the mean of two independent
# experiments performed in triplicates.
# [3] = UV–vis spectroscopy of Fe3+ chelation and complex stability; assay type: physicochemical; settings: activity buffer pH 7.4, 1:1 ratio, t = 0 to 240 min
# Protocol: UV–vis analysis of DFX was first performed to monitor the chelation process and the stability of the Fe^3+ complex over time at a 1:1 ratio, typically representing the duration of inhibition assay (30 min to 4 h) (Figure S1, Supporting Information). In these conditions of pH (7.4) and ligand‐to‐iron ratio and according to Steinhauser et al. the main species in solution is assigned to [Fe(DFX)2]^3−.^[ [49] ^] Indeed, we aimed to explore not only the chelation properties but also the impact of the chelated species on enzyme inhibition.
# 2.c. Chelation properties, iron interactions, and selectivity profiles of selected compounds targeting KLK activity.
# Figure S2: Stability of the chelated species as monitored by spectrophotometry. UV/VIS spectra of molecules alone using activity buffer at pH 7.4 (in orange at 500 µM) or in the presence of FeCl3 (ratio of 1:1) at different times (t = 0 in red, 30 min in black, 60 min in blue and 240 min in green). The purple trace corresponds to iron only at 500 µM All data are representative of 2 independent experiments performed in duplicate. […]
# KLK11 = molecular target: T1, KLK11 (Homo sapiens, UniProt Q9UBX7); experiment: Selectivity screening, KLK11; assay type: biochemical; settings: 50 μM compound, without Fe3+; read-out: percentage of inhibition KLK11
# T1 construct: purchased R&D Systems
# T1 sequence (Q9UBX7 54-282): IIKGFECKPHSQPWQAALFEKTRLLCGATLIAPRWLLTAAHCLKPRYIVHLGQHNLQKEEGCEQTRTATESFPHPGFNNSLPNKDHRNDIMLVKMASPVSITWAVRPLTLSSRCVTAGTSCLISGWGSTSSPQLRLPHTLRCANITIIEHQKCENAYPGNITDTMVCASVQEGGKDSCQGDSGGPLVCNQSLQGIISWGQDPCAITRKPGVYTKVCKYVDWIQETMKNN
# KLK5 = molecular target: T2, KLK5 (Homo sapiens, UniProt Q9Y337); experiment: Selectivity screening, KLK5; settings: read-out: percentage of inhibition KLK5
# T2 sequence (Q9Y337 67-293 limits assumed): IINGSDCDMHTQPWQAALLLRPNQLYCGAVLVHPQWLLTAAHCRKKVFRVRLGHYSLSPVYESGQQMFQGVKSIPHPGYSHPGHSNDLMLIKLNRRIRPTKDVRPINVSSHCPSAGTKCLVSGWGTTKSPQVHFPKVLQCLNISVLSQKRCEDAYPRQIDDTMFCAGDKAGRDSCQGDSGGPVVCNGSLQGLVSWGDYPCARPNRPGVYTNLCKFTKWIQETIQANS
# Protocol: (§18) All enzyme stocks were stored at −20 °C and purchased from R&D Systems as proenzymes (KLK6, KLK8, KLK13) or as mature and active forms (KLK5). Activation of KLK6, KLK8, and KLK13 is performed in optimized buffers. The activation reaction is initiated by Lysyl‐Endopeptidase at 2.5 mU mL^−1 (Wako Bioproducts). The activation reaction is stopped by diluting the enzyme to 0.5 μg mL^−1 in assay buffer (50 mM Tris, 1 M Citrate, 0.05% w/v Brij‐35, pH 8) to obtain an active enzyme stock. KLK1 was purchased from R & D Systems as pro‐KLK1. Activation of KLK1 is performed in 50 mM Tris‐HCl, 10 mM CaCl2, 150 mM NaCl, 0.05% Brij‐35, pH 7.5. The activation reaction is initiated by bacterial thermolysin at 0.4 μg mL^−1 (Sigma‐Aldrich) and stopped by addition of 100 mM EDTA (Sigma‐Aldrich) to obtain an active KLK1 stock at the same concentration of 100 μg mL^−1. The activation reactions for KLK7 are initiated bacterial thermolysin at 0.4 μg mL^−1 (Sigma‐Aldrich) and stopped by addition of 100 mM EDTA (Sigma‐Aldrich) to obtain active stocks. All enzyme stocks were stored at −20 °C. H‐PFR‐AMC (KLK1), Boc‐VPR‐AMC (KLK5, KLK8, KLK13), Boc‐QAR‐AMC (KLK6, Plasmin), substrates were purchased from Bachem. MeO‐Suc‐RPY‐AMC (KLK7) substrate was purchased from AAT Bioquest. Plasmin (Sigma‐Aldrich) was purchased in mature and active form.
# (§19) Compounds were screened on KLKs using a BMG Fluostar microplate reader (black 96‐well microplates). Hit compounds were screened on the selected group of enzymes using optimized concentrations and buffers (KLK1 0.8 nM, KLK4 10 nM, KLK5 0.2 nM; KLK6 1.9 nM; KLK7 6 nM; KLK8 0.2 nM; KLK11 5.2 nM, KLK13 0.47 nM, KLK14 2.5 nM, plasmin 3.3 nM, thrombin 0.1 nM, tissue‐plasminogen activator (tPA) 0.1 nM, matriptase 1 nM, cathepsin L 2 nM) either in absence or prior preincubation in the presence of 100 μM of Fe^3+.
# (§20) The proteases are first preincubated for 15 min with each compound (50 and 100 μM) or with DMSO (<2%, negative control) in a total volume of 85 μL of 50 mM Tris buffer, 1 M citrate, 0.05% Brij‐35, pH 7, 37 °C. The reaction is triggered by the appropriate substrate at the optimized concentration in 15 μL of 50 mM Tris buffer, 1 M citrate, 0.05% Brij‐35, pH 8 (H‐PFR‐AMC 100 μM; Boc‐VPR‐AMC 100 μM; Boc‐QAR‐AMC 100 μM; Meo‐Suc‐RPY‐AMC 150 μM, Z‐LR‐AMC 100 μM, Z‐GGR‐AMC 100 μM) and followed for 30 min at 37 °C. […] The release of the AMC fluorescent group is detected using the following wavelengths: λex = 360 nm and λem = 460 nm. The percent inhibition is calculated from Equation (1) where V 0 is the initial rate of the DMSO control, the initial rate in the presence of the inhibitor V i. (1) %inhibition=(1−(vi/v0))×100
# KLK8 = molecular target: T3, KLK8 (Homo sapiens, UniProt O60259); experiment: KLK8 fluorogenic enzyme inhibition assay (Boc-VPR-AMC)
# T3 sequence (O60259 33-260): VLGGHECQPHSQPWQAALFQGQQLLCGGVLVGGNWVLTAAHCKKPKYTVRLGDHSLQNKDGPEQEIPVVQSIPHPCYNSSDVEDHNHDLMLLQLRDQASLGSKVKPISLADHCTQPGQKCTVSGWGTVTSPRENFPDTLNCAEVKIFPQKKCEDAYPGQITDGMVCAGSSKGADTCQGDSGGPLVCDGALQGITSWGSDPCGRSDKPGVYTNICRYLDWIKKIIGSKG
# Protocol: (§21) All enzyme stocks were stored at −20 °C and purchased from R&D Systems as proenzymes (KLK6, KLK8, KLK13) or as mature and active forms (KLK5). Activation of KLK6, KLK8, and KLK13 is performed in optimized buffers. The activation reaction is initiated by Lysyl‐Endopeptidase at 2.5 mU mL^−1 (Wako Bioproducts). The activation reaction is stopped by diluting the enzyme to 0.5 μg mL^−1 in assay buffer (50 mM Tris, 1 M Citrate, 0.05% w/v Brij‐35, pH 8) to obtain an active enzyme stock. KLK1 was purchased from R & D Systems as pro‐KLK1. Activation of KLK1 is performed in 50 mM Tris‐HCl, 10 mM CaCl2, 150 mM NaCl, 0.05% Brij‐35, pH 7.5. The activation reaction is initiated by bacterial thermolysin at 0.4 μg mL^−1 (Sigma‐Aldrich) and stopped by addition of 100 mM EDTA (Sigma‐Aldrich) to obtain an active KLK1 stock at the same concentration of 100 μg mL^−1. […] All enzyme stocks were stored at −20 °C. H‐PFR‐AMC (KLK1), Boc‐VPR‐AMC (KLK5, KLK8, KLK13), Boc‐QAR‐AMC (KLK6, Plasmin), substrates were purchased from Bachem. […] Plasmin (Sigma‐Aldrich) was purchased in mature and active form.
# as §19, §20
# (§22) The equation is entered in the Kaleidagraph 4.5 software for curve fitting f([I]) = % Inhibition, where [I] is the inhibitor concentration.
# (§23) The mechanism of inhibition was determined by varying substrate and inhibitor concentrations, the type of inhibition and inhibition parameter (Ki or Ki′) are determined by Dixon's plots.
# [4] = Calcein transchelation (calcein release) assay; assay type: physicochemical; settings: calcein 100 nM, 4 h at room temperature; estimation, assay not fully quantitative; read-out: Apparent affinity (pseudo‐affinity constant Kd for Fe3+)
# KLK14 = molecular target: T4, KLK14 (Homo sapiens, UniProt Q9P0G3); experiment: Selectivity screening, KLK14; assay type: biochemical; settings: 50 μM compound, without Fe3+; read-out: percentage of inhibition KLK14
# T4 construct: purchased R&D Systems
# T4 sequence (Q9P0G3 25-251): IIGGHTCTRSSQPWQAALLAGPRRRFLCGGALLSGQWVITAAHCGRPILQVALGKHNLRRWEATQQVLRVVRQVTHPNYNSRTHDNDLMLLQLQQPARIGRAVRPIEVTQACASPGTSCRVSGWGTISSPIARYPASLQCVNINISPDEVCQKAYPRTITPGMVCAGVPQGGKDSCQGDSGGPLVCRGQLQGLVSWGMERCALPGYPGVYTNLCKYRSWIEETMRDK
# KLK13 = molecular target: T5, KLK13 (Homo sapiens, UniProt Q9UKR3); experiment: Selectivity screening, KLK13; settings: read-out: percentage of inhibition KLK13
# T5 sequence (Q9UKR3 26-277 limits assumed): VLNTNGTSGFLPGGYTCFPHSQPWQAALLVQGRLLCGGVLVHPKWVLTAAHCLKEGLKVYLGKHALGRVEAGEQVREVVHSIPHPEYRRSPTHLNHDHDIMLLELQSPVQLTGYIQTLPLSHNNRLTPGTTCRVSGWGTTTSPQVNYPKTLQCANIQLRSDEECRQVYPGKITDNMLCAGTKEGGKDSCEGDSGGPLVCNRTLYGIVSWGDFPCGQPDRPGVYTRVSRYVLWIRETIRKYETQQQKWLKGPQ
# Protocol: as §18, §19, §20
# KLK4 = molecular target: T6, KLK4 (Homo sapiens, UniProt Q9Y5K2); experiment: Selectivity screening, KLK4; assay type: biochemical; settings: 50 μM compound, without Fe3+; read-out: percentage of inhibition KLK4
# T6 construct: purchased R&D Systems
# T6 sequence (Q9Y5K2 31-254): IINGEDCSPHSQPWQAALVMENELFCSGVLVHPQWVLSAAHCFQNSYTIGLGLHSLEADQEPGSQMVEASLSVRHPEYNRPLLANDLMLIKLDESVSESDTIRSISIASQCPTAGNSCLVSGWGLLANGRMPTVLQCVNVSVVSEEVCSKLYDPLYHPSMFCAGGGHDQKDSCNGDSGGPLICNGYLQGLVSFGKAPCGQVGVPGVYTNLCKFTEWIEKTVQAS
# [5] = CCK8 cell viability assay, SH-SY5Y; assay type: cell-based; settings: human, SH-SY5Y neuroblastoma cells, 25 and 50 μM, in absence or presence of iron (100 µM FAC), read-out: percentage of cell viability
# Protocol: as §1, §2, §3, §4, §5, §6, §7, §8, §9, §10, §11, §12, §13, §14, §15, §16, §17
# experiments performed in triplicates.
# [6] = test system: targeted KLKs (KLK1, KLK6, KLK8); experiment: Impact of preincubated compound (50 μM) and Fe3+ (100 μM) on targeted KLKs; assay type: biochemical, human; settings: compound 50 μM preincubated with Fe3+ 100 μM
# Protocol: Next, we evaluated the impact of preincubated mixtures of each compound at 50 μM and Fe^3+ at 100 μM to model an iron overload condition on targeted KLKs (Figure S5, Supporting Information).
# KLK1 = KLK1 (Homo sapiens, UniProt P06870); experiment: KLK1 fluorogenic enzyme inhibition assay (H-PFR-AMC); settings: for IC50: IC50 KLK1, 15 min preincubation at 37 °C, NI = not a hit (not above 50% inhibition at 50 μM)
# Chain of KLK1 (P06870 25-262): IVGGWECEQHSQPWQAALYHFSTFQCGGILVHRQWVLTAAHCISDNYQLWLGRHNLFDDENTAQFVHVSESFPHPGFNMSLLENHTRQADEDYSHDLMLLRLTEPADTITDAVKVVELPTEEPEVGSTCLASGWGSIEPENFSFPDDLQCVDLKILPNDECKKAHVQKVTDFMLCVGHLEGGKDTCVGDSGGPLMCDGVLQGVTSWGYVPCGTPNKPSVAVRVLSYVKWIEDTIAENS
# Protocol: as §21, §19, §20, §22, §23
# KLK6 = KLK6 (Homo sapiens, UniProt Q92876); experiment: KLK6 fluorogenic enzyme inhibition assay (Boc-QAR-AMC); settings: read-out: percentage of inhibition KLK6
# Protocol: as §21, §19, §20, §22, §23
# [7] = IC50 KLK8, 15 min preincubation at 37 °C, NI = not a hit (not above 50% inhibition at 50 μM)
smiles,measurement,setting,value
"O=C(O)c1ccc(-n2nc(-c3ccccc3O)nc2-c2ccccc2O)cc1 [3a, Deferasirox]",reversibility and time dependence of inhibition,[1],reversible and time‐independent inhibitors
same,viability at 24 h,[2],> 80%
same,UV–vis spectrum in the presence of FeCl3 (iron complex formation),[3],appearance of an absorption band with a maximum at 468 nm
same,inhibition at 50 µM,KLK11,90.6%
same,inhibition at 50 µM,KLK5,85.1%
same,Ki′ KLK8,"KLK8; Dixon plot, 100 μM substrate, without Fe3+",8 µM
same,Type of inhibition KLK8,"KLK8; Dixon plot, without Fe3+",Uncompetitive
same,Type of inhibition KLK8,"KLK8; Dixon plot, without Fe3+, listed as DFX",uncompetitive inhibition
same,IC50,KLK8; [7],29.2 ± 1 µM
same,IC50,"KLK8; IC50 KLK8, initial screening of an in‐house array of 1,2,4‐triazole derivatives",~30 µM
same,inhibition at 50 µM,KLK8; read-out: percentage of inhibition KLK8,70.1%
same,Kd,[4],549 ± 7 pM
same,inhibition at 50 µM,KLK14,94.2%
same,inhibition at 50 µM,KLK13,95.1%
same,inhibition at 50 µM,KLK4,80.6%
same,viability at 24 h,[5],> 80%
Oc1ccccc1-c1n[nH]c(-c2ccccc2O)n1 [3c],IC50,KLK8; [7],> 50 µM
same,change of inhibitory activity in the presence of iron,[6],significant higher inhibitory potency in the presence of Fe^3+ on all KLKs
same,Kd,[4],32 ± 12 pM
O=C(c1ccccc1)n1nc(-c2ccccc2O)nc1-c1ccccc1O [3e],reversibility and time dependence of inhibition,[1],reversible and time‐independent inhibitors
same,Ki,KLK1,24 µM
same,Type of inhibition KLK1,"KLK1; Dixon plot, without Fe3+",competitive inhibitor
same,IC50,KLK1,23.3 ± 0.9 µM
same,inhibition at 50 µM,KLK1; read-out: percentage of inhibition KLK1,82.1%
same,viability at 24 h,[2],> 80%
same,inhibition at 50 µM,KLK5,98.8%
same,IC50,KLK8,> 50 µM
same,Kd,[4],410 ± 35 pM
same,inhibition at 50 µM,KLK13,97.1%
same,inhibition at 50 µM,KLK4,67.2%
same,viability at 24 h,[5],> 80%
same,inhibition at 50 µM,KLK6,82.4%
CCOC(=O)[C@H]1CC[C@H](n2nc(-c3ccccc3O)nc2-c2ccccc2O)CC1 [3fa],IC50,KLK8,> 50 µM
O=C(O)[C@H]1CC[C@H](n2nc(-c3ccccc3O)nc2-c2ccccc2O)CC1 [3fb],IC50,KLK8,> 50 µM
CCOC(=O)Cn1nc(-c2ccccc2O)nc1-c1ccccc1O [3g],IC50,KLK8,> 50 µM
O=C(O)Cn1nc(-c2ccccc2O)nc1-c1ccccc1O [3h],IC50,KLK8,> 50 µM
same,Kd,[4],220 ± 24 pM
COC(=O)c1ccc(-n2nc(-c3ccccc3O)nc2-c2ccccc2O)cc1 [3i],IC50,KLK8,> 50 µM
COC(=O)CNC(=O)c1ccc(-n2nc(-c3ccccc3O)nc2-c2ccccc2O)cc1 [3ja],IC50,KLK8,> 50 µM
same,Kd,[4],175 ± 15 pM
O=C(O)CNC(=O)c1ccc(-n2nc(-c3ccccc3O)nc2-c2ccccc2O)cc1 [3jb],IC50,KLK8,27 ± 0.6 µM
same,Kd,[4],78 ± 9 pM
COC(=O)C(Cc1ccccc1)NC(=O)c1ccc(-n2nc(-c3ccccc3O)nc2-c2ccccc2O)cc1 (stereo not drawn) [3ka],IC50,KLK8,> 50 µM
O=C(NC(Cc1ccccc1)C(=O)O)c1ccc(-n2nc(-c3ccccc3O)nc2-c2ccccc2O)cc1 (stereo not drawn) [3kb],IC50,KLK1,16.4 ± 1 µM
same,IC50,KLK8,24.8 ± 1.9 µM
COC(=O)C(Cc1c[nH]c2ccccc12)NC(=O)c1ccc(-n2nc(-c3ccccc3O)nc2-c2ccccc2O)cc1 (stereo not drawn) [3la],IC50,KLK8,> 50 µM
same,Kd,[4],130 ± 20 pM
COC(=O)C1CCCN1C(=O)c1ccc(-n2nc(-c3ccccc3O)nc2-c2ccccc2O)cc1 (stereo not drawn) [3ma],IC50,KLK8,> 50 µM
same,Kd,[4],105 ± 22 pM
Oc1ccccc1-c1nc(-c2ccccc2O)n(-c2ccccc2)n1 [3n],IC50,KLK8; [7],> 50 µM
same,Kd,[4],81 ± 45 pM
